Positions count from the first letter of the chain named. Structures can show the parent of a compound that is named as a salt.
Tests used:
[1] = biological target: T1, M2-type muscarinic cholinergic receptor (Cavia porcellus, UniProt H0VRN8); experiment: Test for affinity for the M2-type muscarinic cholinergic receptor: displacement of [3H]N-methylscopolamine on smooth muscle of guinea-pig ileum; format: binding; conditions: guinea-pig ileum smooth muscle homogenate, 0.3 nM [3H]NMS, 20 min at 30° C., pH 7.5
T1 construct: on a homogenate of smooth muscle of guinea-pig ileum; from tissue; host or cells: guinea-pig ileum smooth muscle homogenate
T1 sequence (H0VRN8 1-466): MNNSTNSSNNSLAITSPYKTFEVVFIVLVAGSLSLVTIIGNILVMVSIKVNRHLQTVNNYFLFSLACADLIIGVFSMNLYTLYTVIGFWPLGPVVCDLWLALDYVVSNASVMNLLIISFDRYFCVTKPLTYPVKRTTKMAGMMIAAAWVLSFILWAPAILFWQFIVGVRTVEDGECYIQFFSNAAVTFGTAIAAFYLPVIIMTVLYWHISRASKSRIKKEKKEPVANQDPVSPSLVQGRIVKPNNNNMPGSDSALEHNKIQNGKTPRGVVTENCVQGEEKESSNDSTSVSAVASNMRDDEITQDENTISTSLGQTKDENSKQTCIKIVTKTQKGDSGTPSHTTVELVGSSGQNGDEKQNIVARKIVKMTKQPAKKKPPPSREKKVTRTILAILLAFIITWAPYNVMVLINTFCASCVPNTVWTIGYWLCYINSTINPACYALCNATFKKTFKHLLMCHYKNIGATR
Description: (§1) The M1 -type receptors are concentrated in certain areas of the brain, such as the hippocampus, the cerebral cortex and the striatum, and also in the sympathetic ganglia. These binding sites can be selectively labeled with [^3 H]pirenzepine ([^3 H]PZ). The M2 -type receptors predominate in the heart and ileum and can be labeled with [^3 H]N-methylscopolamine ([^3 H]NMS). To determine the selectivity of our molecules towards the M1 and M2 sites, we studied their interaction in vitro with [^3 H]PZ and [^3 H]NMS bound with a high affinity to membranes of rat hippocampus and membranes of smooth muscle of guinea-pig ileum, respectively.
The interaction with M2 -type muscarinic receptors was studied by in vitro measurement, on a homogenate of smooth muscle of guinea-pig ileum, of the displacement of tritiated N-methylscopolamine ([^3 H]NMS) from its specific binding sites. Aliquots (50 μl) of a 0.625% (w/v) homogenate of smooth muscle of guinea-pig ileum in MEPES buffer (20 mM) containing NaCl (100 mM) and MgCl2 (10 mM) (final pH: 7.5) are incubated for 20 min at 30° C. in the presence of [^3 H]NMS ([…]; final concentration: 0.3 nM) and increasing concentrations of products to be tested. The final volume is 1 ml. The reaction is stopped by centrifugation for 5 min at 15,000 × g. The non-specific binding is determined in the presence of 10 μmol/l of atropine sulfate (Ref.: Hammer R., Berrie C. P., Birdsall N. I. M., Burgen A. S. V. and Hulme E. C., Nature, 283, 90-92, 1980; Hulme E. C., Birdsall N.1.M., Burgen A. S. V. and Mettha P., Mol. pharmacol., 14, 737-750, 1978).
(§2) Table 4 indicates the affinities of the products of the invention for M1 and M2 receptors. The results are expressed as 50% inhibitory concentrations (IC50), i.e. the concentration (in μM) which causes a 50% displacement placement of the tritiated ligand bound to the membrane receptors. The IC50 for displacement of ^3 H-pirenzepine represents the affinity for the M1 receptor; the IC50 for displacement of 3H-NMS represents the affinity for the M2 receptor.

[2] = biological target: T2, M1-type muscarinic cholinergic receptor (Rattus norvegicus, UniProt P08482); experiment: Test for affinity for the M1-type muscarinic cholinergic receptor: displacement of [3H]pirenzepine on rat hippocampus homogenate; format: binding
T2 sequence (P08482 1-460): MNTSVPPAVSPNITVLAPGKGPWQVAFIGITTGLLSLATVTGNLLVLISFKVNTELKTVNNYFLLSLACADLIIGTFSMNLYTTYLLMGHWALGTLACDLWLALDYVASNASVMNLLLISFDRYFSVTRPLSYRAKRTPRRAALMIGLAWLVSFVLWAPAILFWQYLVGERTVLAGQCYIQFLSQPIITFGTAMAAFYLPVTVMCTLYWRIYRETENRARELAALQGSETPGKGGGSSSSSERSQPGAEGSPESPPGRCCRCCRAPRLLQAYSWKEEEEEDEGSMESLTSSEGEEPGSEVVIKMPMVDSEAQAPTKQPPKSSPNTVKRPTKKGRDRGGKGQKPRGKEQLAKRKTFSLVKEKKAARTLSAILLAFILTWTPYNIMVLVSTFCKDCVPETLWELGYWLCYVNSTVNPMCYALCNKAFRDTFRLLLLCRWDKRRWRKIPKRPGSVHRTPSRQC
Description: as §1
The interaction of the molecules with M1 -type muscarinic receptors was studied by in vitro measurement, on a homogenate of rat hippocampus, of the displacement of tritiated pirenzepine ([^3 H]PZ) from its specific binding sites. Aliquots (10 μl) of a 5% (w/v) homogenate of rat hippocampus in an Na2 HPO4 buffer (50 mM, pH 7.40) are incubated for 2 h at 4° C. in the presence of [^3 H]pZ ([…]; final concentration: 1 nM) and increasing concentrations of products to be studied. The final volume is 2 ml. The reaction is stopped by centrifugation for 10 min at 50,000 × g. After decantation and washing of the residues, the bound radioactivity is counted by liquid scintillation. The non-specific binding is determined in the presence of 10 μmol/l of atropine sulfate. The 50% inhibitory concentration (IC50) is determined graphically (Ref.: Watson J. D., Roeskoe W. R. and Yamamura H.1., Life Sci., 31, 2019-2029, 1982).
as §2

[3] = biological target: T3, M1 central muscarinic cholinergic receptors (Mus musculus, UniProt P12657); experiment: Antagonism of rotational behavior induced by intrastriatal injection of pirenzepine in mice; format: in vivo, mice (female, Swiss, CD 1); conditions: ip, mice, i.p. 15 minutes before intrastriatal pirenzepine, 50% reduction in number of rotations, read-out: Pirenzepine antagonism ED50
T3 construct: The intrastriatal injection of PZ into mice induces rotational behavior; from tissue; host or cells: right striatum of living female mice (Swiss, CD 1)
T3 sequence (P12657 1-460): T2 sequence (P08482 1-460) with S309P
Protocol: Pirenzepine (PZ) is a specific antagonist of M1 central muscarinic cholinergic receptors. The intrastriatal injection of PZ into mice induces rotational behavior. The antagonism of this behavior by the products according to the invention was studied.
The products according to the invention are injected intraperitoneally (i.p.) after solubilization in distilled water or suspension in a 5% solution of gum arabic. The control animals receive an injection of the pure solvent under the same conditions.
The animals used are female mice (Swiss, CD 1, Charles River, France) with a body weight of between 25 and 30 grams.
Pirenzepine is dissolved in a phosphate buffer; the pH of the solution is 6.
The products to be studied or their solvents are injected intraperitoneally, in a volume of 0.4 ml per 20 g of body weight, 15 minutes before a direct injection of pirenzepine at a dose of […] into the right striatum of the mouse, according to the method described by p.
The number of contralateral rotations (rotations in the opposite direction to the side injected) was counted for three 2-minute periods after the injection of pirenzepine: minutes 2 to 4, 8 to 10 and 13 to 15. Each treatment includes 3 to 4 doses and 10 animals per dose. For each treatment, the total number of rotations and the percentage antagonism compared with the control group are calculated.

IC50 [1]: 50 µM | IC50 ([2]; rat hippocampus homogenate, 1 nM [3H]PZ, 2 h at 4° C., pH 7.40): 1.2 µM | r = (M2 /M1) ([2]; ratio of IC50 M2 (3H-NMS, guinea-pig ileum) to IC50 M1 (3H-pirenzepine, rat hippocampus)): 42 | ED50 [3]: 15 mg/kg
SMILES: CN1CCC(Nc2cc3c(nn2)-c2ccccc2CCC3)CC1 [SR 96093 A, 3-(1-Methylpiperidin-4-yl)amino]-6,7-dihydro-5H-benzocyclohepta[5,6-c]pyridazine dihydrochloride]

Reference: patent publication US4977152A, “Novel tricyclic derivatives which are agonists of cholinergic receptors, and drugs in which they are present” (Societe Anonyme: Sanofi, priority 1986, dated 1990)
